Data as given in patent publication US20080081827A1, “Use of a Pyrazole-Derived Compound that is an Antagonist for Cannabinoid CB1 Receptors, for Treating or Preventing Chronic Bronchitis or Chronic Obstructive Bronchopneumopathy” (SANOFI AVENTIS, priority 2004, published 2008).
Like-named read-outs stand apart in the source and are kept apart here.

Tests used:
[1] = system: LPS-induced migration of neutrophil and mononuclear cells in the bronchoalveolar space; assay: Migration of cells in the bronchoalveolar space after activation with bacterial LPS; format: in vivo; conditions: mice, doses 0.3 to 30 mg/kg; for ED50: Mus musculus, i.p. 1 hour before 10 μG intratracheal LPS, bronchoalveolar lavage 24 hours after LPS
Protocol: Migration of cells in the bronchoalveolar space after activation with bacterial LPS (lipopolysaccharide).
Mice weighing 28 to 30 g are stimulated by means of an intratracheal exposure to 10 μG of LPS. 24 hours after the injection of LPS, the animals are anaesthetized with pentobarbital and a bronchoalveolar lavage is performed. The lavage fluids are recovered and are centrifuged, and the cells are then resuspended. The number of cells is counted, differentiating the eosinophil, neutrophil and mononuclear cells according to standard morphological criteria.
The intratracheal injection of LPS induces a considerable increase in the number of mononuclear cells and neutrophils in the bronchoalveolar space of the mice.

[2] = obese patients, clinical studies; cited from earlier work
[3] = STRATUS clinical study, nicotine addiction; cited from earlier work

Question: With `Cc1c(C(=O)NN2CCCCC2)nn(-c2ccc(Cl)cc2Cl)c1-c1ccc(Cl)cc1` [rimonabant, N-piperidino-5-(4-chlorophenyl)-1-(2,4-dichlorophenyl)-4-methylpyrazole-3-carboxamide] as the compound, how does the ED50 ([1]; Mononuclear cell, read-out: ED50, inhibition of migration of the mononuclear cells) read?
Answer: 1.9 mg/kg

Question: What about the ED50 ([1]; Neutrophil, read-out: effective dose 50 (ED50), inhibition of migration of the neutrophil cells) of the same compound?
Answer: 2.3 mg/kg

Question: And the “inhibition of migration of the neutrophil cells” value ([1]; i.p. 1 hour before intratracheal LPS)?
Answer: more than 80%

Question: And the “effect on hunger, calorie intake and body weight” value [2]?
Answer: reduces hunger, calorie intake, and the body weight of obese patients

Question: And the “effect on giving up smoking” value [3]?
Answer: facilitates giving up smoking
